We go through ten compounds from the SangsterLogP compilation.

As a reminder, the logP is a log measure of how a compound divides between an organic and an aqueous phase. A lower logP goes with lower lipophilicity.

Regarding `c1ccc(-c2cc3ccccn3c2)cc1`, the logP worked out at 4.29.
Then `c1ccn2cccc2c1`, with 2.49; and `Clc1ccc(-c2cc3ccccn3c2)cc1`, with 5.2; and `Cc1ccc(-c2cc3ccccn3c2)cc1`, with 4.96.
With `Brc1ccc(-c2cc3ccccn3c2)cc1`, the logP was determined as 5.43.
On to `COc1ccc(-c2cc3ccccn3c2)cc1`, for which the logP came to 4.2.
Compound `COc1cccc(-c2cc3ccccn3c2)c1` gave a logP of 4.14. The logP values of the last two compounds are within 0.2 log units of each other.
For the compound `Clc1cccc(-c2cc3ccccn3c2)c1`, the logP is 5.14.
Then `Brc1cccc(-c2cc3ccccn3c2)c1`, with 5.31; and `Cc1cccc(-c2ccc3cccn3c2)c1`, with 4.87.
